This note sets out measurements from ChEMBL document CHEMBL1201862, “PubChem BioAssay data set” (2004).

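Protocol summary: plate cells (96-well), add compound at 5 concentrations, incubate 48 h, interpolate endpoints linearly. GI50 = concentration required for 50% inhibition of growth.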 The source made the active and inactive calls. No stated cut-off is given here; in the data, active = GI50 up to about 1.1 µM and inactive = higher.

Test in all cases: NCI tumour cell line growth inhibition, 48 h
The subject of assay [1] is LOX IMVI.
Assay [2] has as its system MOLT-4.
Assay [3] concerns EKVX.
Assay [4] deals with OVCAR-5.
The test system of assay [5] is HT-29.
Assay [6] has as its system SN12C.
In assay [7] the test system is DU-145.
Assay [8] deals with RPMI-8226.
For assay [9], the system named is OVCAR-8.
For assay [10], the system named is SK-MEL-2.
In assay [11] the test system is SNB-75.
Assay [12] relates to T47D.
Assay [13] has as its system HCC 2998.
Assay [14] relates to ACHN.
In assay [15] the test system is NCI-H23.
In assay [16] the test system is HOP-92.
For assay [17], the system named is 786-0.
Assay [18] relates to A498.
Assay [19] relates to MCF7.

In the case of `Cc1c(C)c(S(=O)(=O)N(CCCCCN)OCCCN)c(C)c2c1OC(C)(C)CC2`, the GI50 in [1] is 5.4 µM (inactive); in [2] it was 3.76 µM (inactive); in [3], 11.4 µM (inactive); in assay [4], 24.8 µM (inactive); in assay [5], 13 µM (inactive); in [6], 16.6 µM (inactive). For the same compound, the GI50 was 25.1 µM (inactive) in assay [7]; 3.6 µM (inactive) in assay [8]; 15.6 µM (inactive) in [9]; 4.75 µM (inactive) in assay [10]; 6.4 µM (inactive) in [11]; 16.6 µM (inactive) in assay [12]. The GI50 in assay [13] is 2.27 µM (inactive); in assay [14], 17.2 µM (inactive); in assay [15], 14.6 µM (inactive); in [16] it was 18.3 µM (inactive); in assay [17] it was 6.62 µM (inactive); in assay [18], 18.6 µM (inactive).
Regarding `COC(=O)Cc1cc(=O)[nH]c2c1C(=O)CCC2`, the GI50 in assay [2], in assay [3], in assay [4], in assay [5], in assay [6] and in assay [8] was > 100 µM (inactive) each time. Moreover, the GI50 in assay [9], in assay [10], in assay [13], in assay [14], in [15] and in assay [16] was > 100 µM (inactive) each time. Further, the GI50 in assay [17] was > 100 µM (inactive).
As for `NC1=NC(=O)C(CC(=O)Nc2ccc([N+](=O)[O-])cc2[N+](=O)[O-])S1` (stereo not given), the GI50 in assay [1], in assay [2], in assay [3], in assay [4], in assay [5] and in [6] was > 100 µM (inactive) in each case. For the same compound, the GI50 in [8] was > 100 µM (inactive); in assay [9] it was > 100 µM (inactive); in assay [10], > 100 µM (inactive); in assay [11], 92.9 µM (inactive); in assay [13] it was > 100 µM (inactive); in [14], > 100 µM (inactive). Also, the GI50 in [15] is > 100 µM (inactive); in [16], 16.7 µM (inactive); in assay [17] it was > 100 µM (inactive).
`CCNCCNC(=O)c1ccc(Br)cc1`: the GI50 in assay [1], in assay [2], in assay [3], in assay [4], in assay [5] and in [6] was > 100 µM (inactive) each time. Further, the GI50 in assay [8] was > 100 µM (inactive); in [9], > 100 µM (inactive); in assay [11] it was 63.4 µM (inactive); in [19] it was > 100 µM (inactive); in assay [13], > 100 µM (inactive); in assay [14], > 100 µM (inactive). Besides, the GI50 in assay [15], in [16], in [17] and in [18] was > 100 µM (inactive) in each case.
As to `COc1ccc2c(c1)OCC1Cc3cccc(OC)c3OC21` (stereo not given), the GI50 is 45.5 µM (inactive) in [1]; 28 µM (inactive) in [2]; 52.2 µM (inactive) in assay [3]; > 100 µM (inactive) in [4]; 72.8 µM (inactive) in [5]; > 100 µM (inactive) in assay [6]. The GI50 in assay [7] is > 100 µM (inactive); in [8] it was 36.9 µM (inactive); in [9], 45.8 µM (inactive); in assay [10], 51.3 µM (inactive); in [12], 30.1 µM (inactive); in assay [13], 93.3 µM (inactive). Besides, the GI50 is 58.3 µM (inactive) in assay [15], > 100 µM (inactive) in [16], > 100 µM (inactive) in [17] and > 100 µM (inactive) in [18].
In the case of `N#C/C(C(=O)NCc1ccccc1)=C(/N)N1CCCC1`, the GI50 in assay [1], in assay [2], in [3], in assay [4], in [5] and in [6] was > 100 µM (inactive) throughout. The GI50 in [7], in assay [8], in assay [9], in assay [10], in assay [12] and in assay [13] was > 100 µM (inactive) each time. The GI50 in assay [14] was > 100 µM (inactive); in assay [15], > 100 µM (inactive); in [16], 97.7 µM (inactive); in assay [17], > 100 µM (inactive); in assay [18], 94.8 µM (inactive).
With `Nc1cccc2cc(Cl)cnc12`, the GI50 in assay [1] was > 100 µM (inactive); in [2] it was 37.2 µM (inactive); in assay [3], > 100 µM (inactive); in assay [4] it was > 100 µM (inactive); in [5], > 100 µM (inactive); in [6] it was > 100 µM (inactive). Besides, the GI50 in assay [7] is > 100 µM (inactive); in assay [8] it was > 100 µM (inactive); in assay [9] it was > 100 µM (inactive); in assay [11], 34.4 µM (inactive); in [12], 15.2 µM (inactive); in assay [13], > 100 µM (inactive). For the same compound, the GI50 in assay [14], in assay [15], in [16], in assay [17] and in assay [18] was > 100 µM (inactive) each time.
Turning to `CC(C)CCn1c(=O)c2c(=O)[nH][nH]c2c2ccccc21`, the GI50 is > 100 µM (inactive) in [1]; > 10 µM (inactive) in assay [2]; > 100 µM (inactive) in assay [3]; > 100 µM (inactive) in [4]; > 100 µM (inactive) in assay [5]; > 100 µM (inactive) in assay [6]. Besides, the GI50 in assay [7] was > 100 µM (inactive); in assay [8], > 100 µM (inactive); in [9], > 100 µM (inactive); in [11] it was > 10 µM (inactive); in assay [19], > 100 µM (inactive); in [13], > 100 µM (inactive). Also, the GI50 in [14], in [15], in [16], in assay [17] and in assay [18] was > 100 µM (inactive) in each case.
In the case of `COC(=O)[C@@H]1CN(C(C)=O)C(=O)N1C(=O)OCc1ccccc1`, the GI50 in assay [1], in assay [2], in assay [3], in [4], in [5] and in assay [6] was > 100 µM (inactive) each time. For the same compound, the GI50 in [7], in [8], in [9], in assay [10], in assay [12] and in [13] was > 100 µM (inactive) throughout. Also, the GI50 in [14], in assay [15], in assay [16], in assay [17] and in assay [18] was > 100 µM (inactive) in each case.
For `O=C(NC(CS)C(=O)O)c1cccc2c(=O)c3ccccc3[nH]c12` (stereo not given), the GI50 was > 100 µM (inactive) in [1]; > 100 µM (inactive) in [2]; > 100 µM (inactive) in [3]; > 100 µM (inactive) in assay [4]; 83.4 µM (inactive) in assay [5]; > 100 µM (inactive) in [6]. Also, the GI50 in assay [7], in [8], in [9], in assay [10], in assay [11] and in [19] was > 100 µM (inactive) throughout. The GI50 in assay [14], in assay [15], in [16], in assay [17] and in [18] was > 100 µM (inactive) each time.
On to `CCn1c(O)c(C(=O)Nc2cccs2)c(=O)n(CC)c1=S`, for which the GI50 in assay [1] was 17 µM (inactive); in assay [2], 20 µM (inactive); in [4], 23.7 µM (inactive); in [5] it was 17.6 µM (inactive); in [6], 20 µM (inactive); in [8], 20.4 µM (inactive). The GI50 in [9] was 14.2 µM (inactive); in assay [10], 17.3 µM (inactive); in [11], 17.5 µM (inactive); in assay [14], 21.5 µM (inactive); in [15] it was 15.8 µM (inactive); in assay [16], 21 µM (inactive). The GI50 is 19.6 µM (inactive) in assay [17] and 19.5 µM (inactive) in [18].
As for `CC(C)(O)CCc1ccc(O)c2c(=O)c3c(O)c4c(cc3oc12)O[C@H]1OC=C[C@@]41O` [AUSTOCYSTIN D], the GI50 in assay [1] is 9.31 µM (inactive); in assay [2] it was < 0.0106 µM (active); in assay [3], 0.255 µM (active); in assay [4], 0.0615 µM (active); in assay [5], 1.24 µM (inactive); in [6] it was 8.69 µM (inactive). Also, the GI50 was < 0.01 µM (active) in [7]; 0.475 µM (active) in assay [8]; < 0.01 µM (active) in assay [9]; < 0.01 µM (active) in [10]; 0.0562 µM (active) in assay [11]; < 0.01 µM (active) in assay [19]. Further, the GI50 in assay [13] was < 0.01 µM (active); in assay [14], < 0.01 µM (active); in [15] it was < 0.01 µM (active); in [16], 0.251 µM (active); in [17], 7.06 µM (inactive); in assay [18], < 0.01 µM (active).
